Measured values taken from PMC7828477, “Synthesis and Evaluation of Novel Iminosugars Prepared from Natural Amino Acids” (Molecules, 2021).
Counter-ions that a name gives are not always drawn.

How the values were obtained:
Assay in all cases: p-nitrophenyl glycoside hydrolysis, A405, […] min
Format in all cases: biochemical
[1] = target: T1, α-L-fucosidase from Homo sapiens (Homo sapiens, UniProt P04066); details: read-out: α-L-Fuc
T1 construct: gene FUCA1
T1 sequence (P04066 32-466): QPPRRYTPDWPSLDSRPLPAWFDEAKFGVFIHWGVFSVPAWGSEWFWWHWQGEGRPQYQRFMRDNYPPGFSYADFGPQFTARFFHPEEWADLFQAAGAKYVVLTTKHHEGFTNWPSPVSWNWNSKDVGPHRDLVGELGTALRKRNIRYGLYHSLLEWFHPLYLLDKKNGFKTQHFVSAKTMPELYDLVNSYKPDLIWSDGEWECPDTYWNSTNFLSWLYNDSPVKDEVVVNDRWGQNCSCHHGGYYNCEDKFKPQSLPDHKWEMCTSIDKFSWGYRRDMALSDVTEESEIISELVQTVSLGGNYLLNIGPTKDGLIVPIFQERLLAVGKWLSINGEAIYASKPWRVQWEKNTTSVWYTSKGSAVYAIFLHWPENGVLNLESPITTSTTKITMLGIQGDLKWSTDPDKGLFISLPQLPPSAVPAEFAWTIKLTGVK

[2] = target: α-galactosidase from Green coffee (Coffea arabica, UniProt Q42656); details: read-out: α-Gal
[3] = target: T2, β-galactosidase from Escherichia coli (Escherichia coli, UniProt P00722); details: read-out: β-Gal
T2 construct: gene lacZ
T2 sequence (P00722 2-1024): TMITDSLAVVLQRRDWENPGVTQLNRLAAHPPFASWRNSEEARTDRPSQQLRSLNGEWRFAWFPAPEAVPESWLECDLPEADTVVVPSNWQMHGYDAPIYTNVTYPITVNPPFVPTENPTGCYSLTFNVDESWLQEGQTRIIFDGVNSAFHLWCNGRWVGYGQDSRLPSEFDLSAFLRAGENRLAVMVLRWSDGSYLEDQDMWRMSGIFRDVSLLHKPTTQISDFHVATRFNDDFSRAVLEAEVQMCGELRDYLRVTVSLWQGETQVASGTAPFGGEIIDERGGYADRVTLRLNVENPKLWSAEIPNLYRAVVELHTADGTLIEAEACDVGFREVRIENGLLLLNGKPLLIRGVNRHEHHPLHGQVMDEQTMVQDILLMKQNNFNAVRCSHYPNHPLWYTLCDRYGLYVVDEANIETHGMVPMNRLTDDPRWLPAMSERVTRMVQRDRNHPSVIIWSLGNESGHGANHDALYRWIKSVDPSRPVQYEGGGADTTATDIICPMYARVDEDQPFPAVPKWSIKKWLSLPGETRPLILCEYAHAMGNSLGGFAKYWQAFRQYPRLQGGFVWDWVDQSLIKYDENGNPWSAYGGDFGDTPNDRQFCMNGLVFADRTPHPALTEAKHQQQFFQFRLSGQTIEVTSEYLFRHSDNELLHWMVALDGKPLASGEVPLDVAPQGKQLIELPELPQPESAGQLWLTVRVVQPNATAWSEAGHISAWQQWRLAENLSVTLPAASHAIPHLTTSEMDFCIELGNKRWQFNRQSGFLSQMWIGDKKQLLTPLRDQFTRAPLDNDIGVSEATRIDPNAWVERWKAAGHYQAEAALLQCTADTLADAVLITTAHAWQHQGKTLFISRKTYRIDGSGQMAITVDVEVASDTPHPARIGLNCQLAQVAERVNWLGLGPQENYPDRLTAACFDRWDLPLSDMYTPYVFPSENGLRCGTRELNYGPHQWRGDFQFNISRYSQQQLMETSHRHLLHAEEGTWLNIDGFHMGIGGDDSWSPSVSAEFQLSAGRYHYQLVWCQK

Sequence of α-galactosidase from Green coffee (Q42656 16-378): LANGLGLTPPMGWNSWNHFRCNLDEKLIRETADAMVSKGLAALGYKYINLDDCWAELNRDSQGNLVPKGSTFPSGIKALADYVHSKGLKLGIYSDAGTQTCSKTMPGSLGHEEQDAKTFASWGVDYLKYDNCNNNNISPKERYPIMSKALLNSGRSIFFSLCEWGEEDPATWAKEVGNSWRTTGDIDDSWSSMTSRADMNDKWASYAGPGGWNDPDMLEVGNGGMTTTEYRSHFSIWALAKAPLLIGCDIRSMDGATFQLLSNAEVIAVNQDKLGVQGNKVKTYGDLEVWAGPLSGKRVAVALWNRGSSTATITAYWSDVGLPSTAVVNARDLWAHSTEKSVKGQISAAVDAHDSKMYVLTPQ

## C[C@@H]1NC[C@H]2[C@H](CO)[C@H]2[C@H]1O [6b, (1S,4S,5R,6S,7S)-7-(hydroxymethyl)-4-methyl-3-azabicyclo[4.1.0]heptan-5-ol]
[1]
  activity at 5000 µM: 142%

## O=C(O)[C@H]1[C@@H]2CN[C@@H](CO)[C@@H](O)[C@@H]21 [10a, (1R,4S,5S,6S,7S)-7-carboxy-5-hydroxy-4-(hydroxymethyl)-3-azabicyclo[4.1.0]heptan-3-ium trifluoroacetate]
[2]
  activity at 5000 µM: 154%

## OC[C@@H]1[C@@H]2CN[C@@H](CO)[C@@H](O)[C@H]12 [11b]
[3]
  activity at 5000 µM: 25%
